From US12419950B2, “Saponin-based vaccine adjuvants” (THE UAB RESEARCH FOUNDATION, priority 2019, dated 2025)
Marks after values point to notes of the source that are not given here.

Key:
[1] = system: antibody responses to chicken egg ovalbumin (OVA); assay: Serum IgG, IgG1 and IgG2a anti-OVA response (ELISA) in mice immunized s.c. with OVA plus adjuvant; type: in vivo, BALB/c mice; design: IgG2a, serum IgG subclass anti-OVA activity at week 6: unit not given here; settings: for IgG1, serum IgG subclass anti-OVA activity at week 6 / IgG2a, serum IgG subclass anti-OVA activity at week 6: OVA 20 μg + adjuvant 100 μg s.c. days 0, 14, 28; for IgG1, serum IgG subclass anti-OVA activity at week 6 / IgG2a, serum IgG subclass anti-OVA activity at week 6 / IgG2a/IgG1, anti-OVA at week 6: mean ± SEM; for IgG2a/IgG1, anti-OVA at week 6: OVA 20 μg + adjuvant 100 μg s.c.; for IgG2a anti-OVA response in words / serum IgG anti-OVA response compared with OVA alone: study of saponins 3-6; for serum IgG anti-OVA response compared with OVA alone: weeks 2, 4, 6
Procedure: With pure natural saponins 3 and 4, and their derivatives 5 and 6 (FIG. 7) available, their ability to potentiate antibody responses to chicken egg ovalbumin (OVA) was evaluated. The known saponin adjuvant GPI-0100 was used as a positive control. Thus, groups of female BALB/c mice (8-10 weeks of age, six per group) were immunized by the subcutaneous route (s.c.) with OVA (20 μg) alone or with GPI-0100, saponins 3-6 at 100 μg dose on days 0, 14 and 28. Mice were weighed and serum samples were collected prior to each immunization and at 6 weeks after the initial immunization. The levels of serum IgG antibody activity to OVA were determined by enzyme-linked immunosorbent assay (ELISA), as shown in FIGS. 6A-6C, 9A-9C, and Table 1.
Their ability to potentiate antibody responses to chicken egg ovalbumin (OVA) was then evaluated. The known saponin adjuvant GPI-0100 was one of the positive controls. Also used was the recently reported MS derivative VSA-1 (4a) as the other positive control. Its high IgG1/IgG2a production and low toxicity are similar to that of GPI-0100. Thus, groups of female BALB/c mice (8-10 weeks of age, six per group) were immunized by the subcutaneous route (s.c.) with OVA (20 μg) alone or with GPI-0100, or a MS saponin derivative at 100 μg dose on days 0, 14 and 28. Mice were weighed and serum samples were collected prior to each immunization and at 2 weeks following the last immunization. The levels of serum antibody activity to OVA were determined by enzyme-linked immunosorbent assay (ELISA).
BALB/c mice used in this study were from Frederick Cancer Research (Fredrick, MD). To assess the adjuvant activity of the MS saponin-based immune adjuvants, groups of female mice (8-10 weeks of age; 6 mice per group) were immunized by the subcutaneous (s.c.) route with OVA (20 μg) or rHagB (35 μg) alone, or with antigen plus proper adjuvant such as GPI-0100 (100 μg) or a MS adjuvant (100 μg) on days 0, 14 and 28. Prior to each immunization and at two weeks post last immunization, mice were weighed and blood samples were collected from the lateral tail vein by using heparinized capillary pipettes. The serum was obtained after centrifugation and stored at −20° C. until assayed.
The levels of specific serum IgG and IgG subclasses against OVA or rHagB in each group were determined by an enzyme-linked immunosorbent assay (ELISA). Maxisorpmicrotiter plates (NUNC International, Roskilde, DK) were coated with rHagB (1 μg/ml), OVA (0.1 μg/ml), or with optimal amounts of goat anti-mouse IgG, IgG1 or IgG2a in borate buffer saline (BBS; 100 mM NaCl, 50 mM boric acid, 1.2 mM Na2B4O7, pH 8.2) at 4° C. overnight. Plates were blocked with 1% bovine serum albumin (BSA) and 0.02% sodium azide in BBS for 2 h at room temperature. Serial two-fold dilutions of serum samples were added in duplicate to the plates. To generate standard curves, serial dilutions of a mouse immunoglobulin reference serum (MP Biomedicals, Solon, OH) were added to two rows of wells in each plate that had been coated with the appropriate anti-mouse IgG or IgG subclass reagent. After incubation (overnight at 4° C.) and washing of the plates, horseradish peroxidase-conjugated goat anti-mouse IgG or IgG subclass antibody was added to appropriate wells. After 4 h of incubation at room temperature, plates were washed and developed by o-phenylenediamine substrate with hydrogen peroxide. Color development was recorded at 490 nm. The concentrations of antibodies were determined by interpolation on standard curves generated by using the mouse immunoglobulin reference serum and constructed by a computer program based on four-parameter logistic algorithms (Softmax/Molecular Devices Corp., Menlo Park, CA).
Statistical significance in antibody responses was evaluated by t tests (with unpaired, nonparametric and Mann-Whiteny test) using GraphPad Prism 8. Differences were considered significant at a P value<0.05.

[2] = system: serum Ab titers; settings: in vivo; cited from earlier work

Momordica saponins II [compound 4]
IgG1, serum IgG subclass anti-OVA activity at week 6 [1]: 262 ± 37 µg/mL
IgG2a, serum IgG subclass anti-OVA activity at week 6 [1]: 0.1
IgG2a/IgG1, anti-OVA at week 6 [1]: <0.001**
IgG2a anti-OVA response in words [1]: negligible IgG2a responses
serum IgG anti-OVA response compared with OVA alone [1]: significant difference in IgG responses from the OVA group at weeks 2 (P<0.01) and 4 (P<0.001) but not at week 6

CC1OC(OC2C(O)C(C(=O)O)OC(OC3CCC4(C)C(CCC5(C)C4CC=C4C6CC(C)(C)CCC6(C(=O)OC6OC(C)C(O)C(O)C6OC6OC(C)C(OC7OCC(O)C(O)C7O)C(OC7OC(CO)C(O)C(OC8OCC(O)C(O)C8O)C7O)C6O)CCC45C)C3(C)C=O)C2OC2OC(CO)C(O)C(O)C2O)C(O)C(O)C1O (centres unmarked) [compound 3, Momordica saponin I]
IgG1, serum IgG subclass anti-OVA activity at week 6 [1]: 233 ± 74 µg/mL
IgG2a, serum IgG subclass anti-OVA activity at week 6 [1]: 0.2
IgG2a/IgG1, anti-OVA at week 6 [1]: <0.001**
IgG2a anti-OVA response in words [1]: negligible IgG2a responses
serum IgG anti-OVA response compared with OVA alone [1]: did not show significant difference in IgG responses from the OVA group

monophosphoryl lipid A [MPL]
boost of serum Ab titers compared to vaccine alone [2]: 10-20 fold
